Reference: patent US20250034196A1, “ESTER DERIVATIVES OF N4-HYDROXYCYTIDINE AND USE THEREOF” (priority 2021, published 2025)

Key:
Microsome stability = assay type: in vitro ADME, Monkey; conditions: monkey, microsomes, pH 7.4
Protocol: (§1) Preparation of Solutions: Stock solution (10 mM) of each of test compounds was prepared in DMSO. The stock solution for each compound was then diluted into 100 μM with acetonitrile.
(§2) Microsome Incubations: Incubation mixtures were prepared in a total volume of 200 μL with final component concentrations as follows: 0.1M PBS (pH 7.4), NADPH (2 mM) and liver microsomes (0.2 mg/mL) as well as test compound (1 μM) or Molnupiravir (1 μM) as a positive control, wherein the NADPH was added after a 5-min preincubation of all other components at 37° C. Pipette-mixed to achieve a homogenous suspension and immediately transferred 20 μL incubate as a 0 min sample to wells in a “Quenching” plate followed by adding 200 μL of acetonitrile with metolazone as IS and pipette-mixing. At 2, 5, 10, and 45 min, pipette-mixed the incubate and serially transfer samples of 20 μL incubate per time point to wells in a separate “Quenching” plate followed by adding 200 μL of acetonitrile with metolazone as IS and pipette-mixing.
(§3) Sample Analysis: The 96-well plate was centrifuged at 6000 g for 10 min. The supernatant was injected onto the LC-MS/MS system for analysis.

in vitro [1] = assay type: in vitro ADME; conditions: plasma
Protocol: as §1
Plasma Incubations: Plasma incubations were conducted in duplicate in 96-well plate at 37° C. Plasma was prewarmed in a total volume of 198 μL for 5 min at 37° C., then added 2 μL of 100 μM test compound into an incubation well containing plasma, pipette-mixed to achieve a homogenous suspension and immediately transferred 20 μL incubate as a 0 min sample to wells in a “Quenching” plate followed by adding 200 μL of acetonitrile with metolazone as internal standard (IS) and pipette-mixing. At 2, 5, 60, and 90 min, pipette-mixed the incubate and serially transfer samples of 20 μL incubate per time point to wells in a separate “Quenching” plate followed by adding 200 μL of acetonitrile with metolazone as IS and pipette-mixing.
as §3

in vitro [2] = assay type: in vitro ADME; conditions: microsomes, pH 7.4
Protocol: as §1, §2, §3

in vitro [3] = conditions: African green monkey
[4] = tested on: SARS-CoV-2, Hongkong strain; assay type: in vivo, K18 hACE2 transgenic mice
in vivo = assay: in vivo; set-up: species or system Beagle Dogs; conditions: dog, po; for Cmax: Cmax of EX-2/CH2101; for Tmax: Tmax of EX-2/CH2101; for AUC(0-t): AUClast of EX-2/CH2101; for concentration at 0.25 hr / concentration at 0.5 hr / concentration at 1 hr / concentration at 0.083 hr: Plasma concentration of EX-2/CH2101
Protocol: Example 174: Pharmacokinetic Study of EX-2 (CH2101), Molnupiravir (CH2017) and its Metabolite NHC (CH2018) Following a Single PO Administration of EX-2 (CH2101) or Molnupiravir (CH2017) in Male and Female Beagle Dogs
Both test compounds were prepared in 1% methyl cellulose (400 cps, SIGMA, SLCF9694) solution in purified water.
A total of 6 male+6 female Beagle Dogs, approximately 7-13 kg of bodyweight, were originally purchased from Marshall Biotechnology Co., Ltd. The animals were fasted overnight prior to dosing and food was re-provided after 4 hours post dosing.
The animals were restrained manually, and approximately 1 mL of blood at each time point was collected into pre-cooled EDTA-K2 tubes via cephalic or saphenous veins. Blood samples were centrifuged at 4° C. (4000 rpm. 5 min) to obtain plasma within 30 min after sample collection. All samples were stored at approximately −80° C. until analysis. The backup samples will be discarded after the in vivo experiment has been completed for two months unless requested.

In the case of `CC(=O)ONc1ccn([C@@H]2O[C@H](CO)[C@@H](O)[C@H]2O)c(=O)n1` [EX-2], the half-life at 1 µM (Microsome stability) is reported as 50.8 min, the half-life at 1 µM (in vitro [1]; dog) is reported as 79.1 min and the half-life at 1 µM (in vitro [1]; human) is reported as 11.6 min. The half-life at 1 µM (in vitro [1]; monkey) was 29.3 min, the half-life at 1 µM (in vitro [1]; mouse) was 7.4 min and the half-life at 1 µM (in vitro [1]; rat) was 87.8 min. For the same compound, the half-life at 1 µM (in vitro [2]; dog) was 76.3 min, the half-life at 1 µM (in vitro [2]; human) was 33.5 min and the half-life at 1 µM (in vitro [2]; mouse) was 16.2 min. The half-life at 1 µM (in vitro [2]; rat) was 288 min, the CC50 at 4 days (in vitro [3]) was 18.2 µM and the Survival proportions ([4]; 14-day study, twice daily days 0-6, CH2101 450 mg/kg PO, Remdesivir 25 mg/kg SC) was 100%. For the same compound, the “Antiviral efficacy in vivo (conclusion)” value ([4]; 450 mpk PO twice daily) was “optimal antiviral efficacy in vivo”, the “Clinical symptoms (observation)” value ([4]; CH2101 450 mpk PO twice daily days 0-6) was “no infection-related clinical symptom was observed” and the “Body weights (observation)” value ([4]; EX-2/CH2101 450 mpk PO twice daily days 0-6) was “without notable body weight loss observed”. The “Virus titer in lung” value ([4]; day 5, plaque assay, mean, twice daily days 0-4, CH2101 450 mpk PO, Remdesivir 25 mpk SC) was 2.64 Log 10 plaque#/g lung, the “Virus titer in lung, mean difference vs. group 1 (Vehicle group)” value ([4]; day 5, CH2101 450 mpk PO, Remdesivir 25 mpk SC) was 3.31 Log and the Median survival time ([4]; twice daily days 0-6, CH2101 450 mg/kg PO, Remdesivir 25 mg/kg SC) was “Undefined”. It also gave a Cmax (in vivo; both sexes, Beagle, 20 mg/kg) of 12.8 ng/mL, a Tmax (in vivo; both sexes, Beagle, 20 mg/kg) of 15 min and an AUC(0-t) (in vivo; both sexes, beagle, 10 mg/kg) of 5.07 ng·h/mL. It also gave a Cmax (in vivo; both sexes, beagle, 10 mg/kg) of 15.5 ng/mL, a concentration at 0.25 hr (in vivo; both sexes, beagle, 10 mg/kg) of 16 ng/mL and a concentration at 0.5 hr (in vivo; both sexes, beagle, 10 mg/kg) of 10.7 ng/mL. For the same compound, the concentration at 1 hr (in vivo; both sexes, beagle, 10 mg/kg) was 12.2 ng/mL, the Tmax (in vivo; both sexes, beagle, 10 mg/kg) was 26.3 min and the AUC(0-t) (in vivo; both sexes, beagle, 20 mg/kg) was 5.43 ng·h/mL. It also gave a concentration at 0.083 hr (in vivo; both sexes, beagle, 20 mg/kg) of 11.2 ng/mL, a concentration at 0.25 hr (in vivo; both sexes, beagle, 20 mg/kg) of 12.8 ng/mL and a concentration at 0.5 hr (in vivo; both sexes, beagle, 20 mg/kg) of 10.5 ng/mL. The concentration at 1 hr (in vivo; both sexes, beagle, 20 mg/kg) was 11.3 ng/mL, the “Plasma concentration of EX-1/NHC/CH2018” value (in vivo; both, Beagle, 20 mg/kg, 6 hr) was 401 ng/mL and the “Plasma concentration of EX-1/NHC/CH2018” value (in vivo; both, Beagle, 20 mg/kg, 8 hr) was 138 ng/mL. The “Plasma concentration of EX-1/NHC/CH2018” value (in vivo; both, Beagle, 20 mg/kg, 24 hr) was 17.7 ng/mL, the “AUCmale/female of EX-1/NHC/CH2018” value (in vivo; both, beagle, 20 mg/kg) was 69.2% and the “AUCmale/female of EX-2/CH2101” value (in vivo; both, beagle, 20 mg/kg) was 96.1%. For the same compound, the “Plasma concentration of EX-1/NHC/CH2018” value (in vivo; both, beagle, 20 mg/kg, 0.083 hr) was 148 ng/mL, the “Plasma concentration of EX-1/NHC/CH2018” value (in vivo; both, beagle, 20 mg/kg, 0.25 hr) was 2014 ng/mL and the “Plasma concentration of EX-1/NHC/CH2018” value (in vivo; both, beagle, 20 mg/kg, 0.5 hr) was 3703 ng/mL. The “Plasma concentration of EX-1/NHC/CH2018” value (in vivo; both, beagle, 20 mg/kg, 1 hr) was 6118 ng/mL, the “Plasma concentration of EX-1/NHC/CH2018” value (in vivo; both, beagle, 20 mg/kg, 2 hr) was 5958 ng/mL and the “Plasma concentration of EX-1/NHC/CH2018” value (in vivo; both, beagle, 20 mg/kg, 4 hr) was 1600 ng/mL. For the same compound, the AUC(0-t) (in vivo; female, Beagle, 20 mg/kg) was 5.54 ng·h/mL, the Cmax (in vivo; female, Beagle, 20 mg/kg) was 13 ng/mL and the Tmax (in vivo; female, Beagle, 20 mg/kg) was 15 min. For the same compound, the “Cmax of EX-2/CH2101” value (in vivo; female, beagle, 10 mg/kg) was 14.0 ng/mL, the “Tmax of EX-2/CH2101” value (in vivo; female, beagle, 10 mg/kg) was 60 min and the Cmax (in vivo; female, beagle, 10 mg/kg) was 12.2 ng/mL. For the same compound, the concentration at 0.25 hr (in vivo; female, beagle, 10 mg/kg) was 14 ng/mL, the concentration at 1 hr (in vivo; female, beagle, 10 mg/kg) was 12.2 ng/mL and the concentration at 0.25 hr (in vivo; female, beagle, 20 mg/kg) was 13 ng/mL. The concentration at 1 hr (in vivo; female, beagle, 20 mg/kg) was 11.3 ng/mL, the AUC(0-t) (in vivo; male, Beagle, 20 mg/kg) was 5.32 ng·h/mL and the Cmax (in vivo; male, Beagle, 20 mg/kg) was 12.5 ng/mL. It also gave a Tmax (in vivo; male, Beagle, 20 mg/kg) of 15 min, an AUC(0-t) (in vivo; male, beagle, 10 mg/kg) of 5.07 ng·h/mL and a Cmax (in vivo; male, beagle, 10 mg/kg) of 17.9 ng/mL. It also gave a concentration at 0.25 hr (in vivo; male, beagle, 10 mg/kg) of 17.9 ng/mL, a concentration at 0.5 hr (in vivo; male, beagle, 10 mg/kg) of 10.7 ng/mL and a Tmax (in vivo; male, beagle, 10 mg/kg) of 15 min. For the same compound, the concentration at 0.083 hr (in vivo; male, beagle, 20 mg/kg) was 11.2 ng/mL, the concentration at 0.25 hr (in vivo; male, beagle, 20 mg/kg) was 12.5 ng/mL and the concentration at 0.5 hr (in vivo; male, beagle, 20 mg/kg) was 10.5 ng/mL.
